Assay: Twenty-four hour aqueous solubility at 25° C.
Type: physicochemical
Conditions: thermodynamic from solid, crystalline
Procedure: Twenty-four Hour Aqueous Solubility of Crystalline GLP1RA-Ca at 25° C.
Twenty-Four Hour Aqueous Solubility of Preparation 3 SDD at 25° C.

- solubility at 24 h (aqueous buffer, pH 4.5 acetate buffer (USP), media pH 4.5): < 1 µg/mL
- solubility at 24 h (aqueous buffer, pH 6.0 phosphate buffer (USP), media pH 5.99): < 1 µg/mL
- solubility at 24 h (aqueous buffer, pH 7.5 phosphate buffer (USP), media pH 7.44): 3 µg/mL
- solubility at 24 h (fassif, Fasted state simulated intestinal fluid, media pH 6.49): 2 µg/mL
- solubility at 24 h (fessif, Fed state simulated intestinal fluid, media pH 4.93): 13 µg/mL
- solubility at 24 h (simulated gastric fluid, 0.01N HCl, media pH 1.98): < 1 µg/mL
- solubility at 24 h (simulated gastric fluid, 0.1N HCl, media pH 1.01): < 1 µg/mL
- solubility at 24 h (Simulated gastric fluid, media pH 1.97): 3 µg/mL
- solubility at 24 h (Water, media pH not measured): 28 µg/mL
Structure (SMILES): Cc1cc(-n2nc3c(c2-n2ccn(-c4ccc5c(cnn5C)c4F)c2=O)[C@H](C)N(C(=O)c2cc4cc([C@H]5CCOC(C)(C)C5)ccc4n2[C@@]2(c4noc(=O)[nH]4)C[C@@H]2C)CC3)cc(C)c1F [GLP1RA-Ca, 3-[(1S,2S)-1-[5-[(4S)-2,2-dimethyloxan-4-yl]-2-[(4S)-2-(4-fluoro-3,5-dimethylphenyl)-3-[3-(4-fluoro-1-methylindazol-5-yl)-2-oxoimidazol-1-yl]-4-methyl-6,7-dihydro-4H-pyrazolo[4,3-c]pyridine-5-carbonyl]indol-1-yl]-2-methylcyclopropyl]-4H-1,2,4-oxadiazol-5-one, 0.5 Ca hydrate]

Reference: patent publication US20250325525A1, “GLP1 TABLET COMPOSITIONS” (Eli Lilly and Company, priority 2022, published 2025)
